Laboratory results reported in ChEMBL document CHEMBL1149294, “A novel class of inhibitors of peptide deformylase discovered through high-throughput screening and virtual ligand screening” (J Med Chem, 2004).
Calls of active or inactive are those of the source. The calls are words filed in the database; no cut-off is given here.

Key:
Peptide deformylase = molecular target: T1, Peptide deformylase (Escherichia coli, UniProt Q9JN24); assay: Inhibition of Escherichia coli PDF
T1 sequence (Q9JN24 whole entry): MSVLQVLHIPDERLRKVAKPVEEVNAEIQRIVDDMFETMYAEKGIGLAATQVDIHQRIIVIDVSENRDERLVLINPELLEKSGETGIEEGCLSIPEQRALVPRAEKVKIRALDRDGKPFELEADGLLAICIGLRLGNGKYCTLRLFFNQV

Glycine max = assay: Inhibition of soybean PDF using PDF/FDH coupled spectrophotometric assay

| SMILES | IC50 (Peptide deformylase) [µM] | Activity (Glycine max) |
| --- | --- | --- |
| O=C(O)CCCCCN1C(=O)/C(=C/c2c[nH]c3ccccc23)SC1=S | > 30 |  |
| Cc1ccc(-c2nn(-c3ccccc3)cc2/C=C2\SC(=S)N(CC(=O)O)C2=O)cc1 | > 30 | inactive |
| CCOc1cc(/C=C2\SC(=S)N(CCCCCC(=O)O)C2=O)ccc1O | > 30 |  |
| COc1ccc(/C=C2\SC(=S)N(CCCCCC(=O)O)C2=O)cc1Br | > 30 |  |
| Cc1ccc(-c2nn(-c3ccccc3)cc2/C=C2\SC(=S)N(CCCCCC(=O)O)C2=O)o1 | > 30 |  |
| Cc1cc(/C=C2\SC(=S)N(CCCCCC(=O)O)C2=O)c(C)n1-c1ccccc1 | > 30 |  |
| O=C(O)CCCCCN1C(=O)/C(=C/c2cn(-c3ccccc3)nc2-c2ccccc2)SC1=S | > 30 |  |
| COc1ccccc1/C=C1\SC(=S)N(CCCCCC(=O)O)C1=O | > 30 |  |
| O=C(O)CCCCCN1C(=O)/C(=C/c2cn(-c3ccccc3)nc2-c2cccs2)SC1=S | > 30 |  |
| Cc1cc(/C=C2\SC(=S)N(CCCCCC(=O)O)C2=O)c(C)n1-c1ccc(Br)cc1 | > 30 |  |
| O=C(O)CCCCCN1C(=O)/C(=C/c2ccc(F)cc2)SC1=S | > 30 |  |
| Cc1nn(-c2ccccc2)c(Cl)c1/C=C1\SC(=S)N(CCCCCC(=O)O)C1=O | > 30 |  |
| Cc1nn(CCC#N)cc1/C=C1\SC(=S)N(CCCCCC(=O)O)C1=O | > 30 |  |
| CC(/C=C1\SC(=S)N(CCCCCC(=O)O)C1=O)=C\c1ccccc1 | > 30 |  |
| O=C(O)CCN1C(=O)/C(=C/c2cn(-c3ccccc3)nc2-c2ccccc2)SC1=S | > 30 | inactive |
| O=C(O)CCCCCN1C(=O)/C(=C/c2ccc(-c3ccc(Cl)c(Cl)c3)o2)SC1=S | > 30 |  |
| COC(=O)CCCCCN1C(=O)/C(=C/c2cc(C)n(-c3ccccc3)c2C)SC1=S |  | inactive |
